Measured values as given in patent US20160136108A1, “HYDROXYTYROSOL COMPOSITIONS FOR TREATMENT OF CARTILAGE INJURIES IN JOINTS” (DSM IP ASSETS B.V., priority 2007, published 2016).

Legend:
Assay type in all cases: cell-based
human aggrecan = assay: Anabolic gene expression by quantitative real-time PCR in normal human primary chondrocytes: aggrecan
Experimental: (§1) […] These primary chondrocytes were passaged in vitro not more than 4 times, before being used for experiments. Cells were cultured in chondrocyte differentiation medium (Cambrex, #CC-3225) without or with substances for 4 hours. Total RNA was extracted from cultured cells and reverse-transcribed as described by Richard et al. Mol. Nutr. Food Res. 49, 431-442, 2005. Expression levels of distinct genes were determined by quantitative real-time PCR as detailed in Richard et al. Mol. Nutr. Food Res. 49, 431-442, 2005.

human SOX-6 = assay: Anabolic gene expression by quantitative real-time PCR in normal human primary chondrocytes: SOX-6; details: normal human primary chondrocytes (HNAC-kn); 4 hours
Experimental: as §1

human SOX-5 = assay: Anabolic gene expression by quantitative real-time PCR in normal human primary chondrocytes: SOX-5; details: normal human primary chondrocytes (HNAC-kn); 4 hours
Experimental: as §1

human COL2A1 = assay: Anabolic gene expression by quantitative real-time PCR in normal human primary chondrocytes: COL2A1
Experimental: as §1

Human IL-R antagonist = assay: Anti-catabolic gene expression by quantitative real-time PCR in normal human primary chondrocytes: IL-R antagonist; details: normal human primary chondrocytes (HNAC-kn); 4 hours
Experimental: as §1

[1] = 12.5 microM OH-Tyrosol, normal human primary chondrocytes (HNAC-kn), 4 hours
[2] = in words, normal human primary chondrocytes

Compound: OCCc1ccc(O)c(O)c1 [OH-Tyrosol, 4-(2-hydroxylethyl)-1,2-benzenediol]
- level of gene expression, human aggrecan (human aggrecan; [1]): 125 % of control-treated cells
- effect of compounds on gene expression, human aggrecan (human aggrecan; [2]): substantially increased
- level of gene expression, human SOX-6 (human SOX-6): 127 % of control-treated cells
- level of gene expression, human SOX-5 (human SOX-5): 130 % of control-treated cells
- level of gene expression, human COL2A1 (human COL2A1; [1]): 247 % of control-treated cells
- effect of compounds on gene expression, human COL2A1 (collagen II) (human COL2A1; [2]): substantially increased
- level of gene expression, Human IL-R antagonist (Human IL-R antagonist): 113 % of control-treated cells
